# Experimental data from PubChem BioAssay (NCI).
#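 Where inhibition never reached the appropriate level, the endpoint shown equals the highest concentration tested. Otherwise, values were interpolated linearly from a five-concentration, 48-hour dose response in 96-well plates. The concentration for 50% growth inhibition is given as GI50. TGI is the concentration that stops growth completely.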
# Assays:
# Assay in all cases: inhibition of tumour cell growth, NCI panel, 48 h
# TK-10 renal = system: TK-10 renal
# COLO 205 colon = system: COLO 205 colon
# EKVX NSCLC = system: EKVX NSCLC
# SK-MEL-5 melanoma = system: SK-MEL-5 melanoma
# OVCAR-8 ovarian = system: OVCAR-8 ovarian
# MALME-3M melanoma = system: MALME-3M melanoma
# NCI-H522 lung = system: NCI-H522 lung
# NCI-H226 lung = system: NCI-H226 lung
# MDA-MB-435 = system: MDA-MB-435
# CCRF-CEM leukemia = system: CCRF-CEM leukemia
SMILES,TGI (TK-10 renal) [µM],TGI (COLO 205 colon) [µM],TGI (EKVX NSCLC) [µM],TGI (SK-MEL-5 melanoma) [µM],TGI (OVCAR-8 ovarian) [µM],TGI (MALME-3M melanoma) [µM],TGI (NCI-H522 lung) [µM],TGI (NCI-H226 lung) [µM],GI50 (TK-10 renal) [µM],GI50 (MDA-MB-435) [µM],TGI (MDA-MB-435) [µM],GI50 (COLO 205 colon) [µM],GI50 (EKVX NSCLC) [µM],GI50 (SK-MEL-5 melanoma) [µM],GI50 (OVCAR-8 ovarian) [µM],GI50 (MALME-3M melanoma) [µM],GI50 (NCI-H522 lung) [µM],GI50 (NCI-H226 lung) [µM],TGI (CCRF-CEM leukemia) [µM]
O=C(CC(=O)N1N=C(c2ccccc2)C(N=Nc2ccc(C(=O)O)cc2)C1=O)Nc1ccc(F)cc1 (stereo not given),> 100,> 100,77.1,46.9,> 100,> 100,33.3,24,,,,,,,,,,,
CC(=O)Oc1ccc(OC(C)=O)c2ccccc12,31.5,28.2,24.7,26.4,22.7,33,5.41,31.3,17.2,3.86,15,15,10.4,13.5,6.66,14,2.04,14.4,
CC(C)[C@@H]1C=C(c2ccccc2)c2ccccc2C1C(C#N)(C#N)C(C)C (stereo not given in full),> 100,> 100,> 100,> 100,> 100,> 100,,> 100,,,,,,,,,,,> 100
Cn1c2ccccc2c(=Nc2ccccc2)c2c3ccccc3[nH]c21,2.2,18.8,8.63,2.06,10.2,1.8,> 100,2,1.03,1.84,3.32,4.53,3.21,0.787,1.85,0.345,2.29,0.615,
NCCCCCS(=O)(=O)O,> 100,> 100,> 100,> 100,> 100,> 100,> 100,,,,,,,,,,,,> 100
COc1ccc(C2OC(=O)c3c2ccc2ccccc32)c(C)c1 (stereo not given),17.7,21.9,> 100,6.82,> 100,17.3,,67.6,,,,,,,,,,,
Nc1nc2c(ncn2C2OC(CO)C(O)C2N)c(=O)[nH]1 (stereo not given),> 100,> 100,,,> 100,> 100,> 100,,,,,,,,,,,,> 100
Nc1[nH]c(=O)ncc1F,> 100,> 100,> 100,> 100,> 100,> 100,> 100,> 100,,,> 100,,,,,,,,
O=C(N/N=C(/c1nc2ccc(Cl)cc2[nH]c1=O)C(O)c1ccc(Cl)cc1Cl)c1ccncc1 (stereo not given),> 100,> 100,> 100,> 100,> 100,> 100,,> 100,,,,,,,,,,,> 100
Cc1nc(C)c(C(=O)Nc2cccc3c2C(=O)NC3=O)cc1C(=O)Nc1cccc2c1C(=O)NC2=O,> 100,> 100,> 100,> 100,> 100,> 100,> 100,> 100,,,,,,,,,,,> 100
COC(=O)C1=C(OC)c2cc3c(cc2C(c2cc(OC)c(OC)c(OC)c2)C1C(=O)OC)OCO3 (stereo not given),> 100,> 100,> 100,> 100,> 100,> 100,,> 100,,,,,,,,,,,> 100
O=C1C2c3[nH]c4ccccc4c3[C@@H]3CCCCCCCCCCC3C2C(=O)N1c1ccccc1 (stereo not given in full),44.3,58.5,> 100,> 100,42,,,95,,,,,,,,,,,
CCCCCCCCCCCC(=O)OCC1OC(n2cc(F)c(=O)[nH]c2=O)C(NC(=O)OCc2ccccc2)C(O)C1O (stereo not given),> 100,39.7,79.9,34.6,43.7,47.9,30.8,,,,,,,,,,,,41.7
COc1ccc(/C=C2\Cc3ccccc3C2=O)cc1OC,> 100,> 100,> 100,> 100,> 100,> 100,> 100,,,,,,,,,,,,> 100
CCOC(=O)C1N(S(=O)(=O)c2ccc(C)cc2)CCC12c1ccccc1N(C(C)=O)C2C(/C=C/C(=O)OC)=C/C(=O)OC (stereo not given),> 100,> 100,> 100,> 100,> 100,> 100,> 100,> 100,,,,,,,,,,,> 100
N#Cc1cccc(NC(=O)c2ccc(C(=O)O)c(C(=O)c3ccc(C(=O)O)c(C(=O)Nc4cccc(C#N)c4)c3)c2)c1,> 100,> 100,> 100,> 100,> 100,> 100,> 100,> 100,,,,,,,,,,,> 100
O=C(c1cc(O)ccc1O)c1ccccc1C(Cl)(Cl)Cl,> 100,> 100,> 100,> 100,> 100,> 100,> 100,> 100,,,,,,,,,,,> 100
Cn1cnc([N+](=O)[O-])c1Sc1ccccn1,> 100,> 100,> 100,> 100,> 100,> 100,> 100,> 100,,,,,,,,,,,> 100
CC1=NNC(=NCCN(C)C)C/C1=C/c1ccccc1Cl,> 100,> 100,> 100,> 100,> 100,> 100,,,,,,,,,,,,,
COC(=O)/C=C/C(=O)C1C(C(=O)OC)C2(C(=O)OC)CCC1(C(=O)OC)N2 (stereo not given),> 100,> 100,> 100,> 100,> 100,> 100,,,,,,,,,,,,,
Cc1cc(C)cc(-n2c3nc(=O)n(C)c(=O)c-3nc3ccccc32)c1,> 100,24.8,44.7,30.8,> 100,30.3,44.2,> 100,,,,,,,,,,,61
O=P(Oc1ccc(Cl)cc1)(Oc1ccc(Cl)cc1)N1CC1,> 10,> 10,> 10,> 10,> 10,> 10,,> 10,,,> 10,,,,,,,,0.429
